According to publication PMC7265341, “Quantifying CDK inhibitor selectivity in live cells” (Nature Communications, 2020):
“And” between values parts separate entries of the source, which are not always exact repeats. Identical values can stand only once. Like-named read-outs stand apart in the source and are kept apart here. Blank lines part the entries; values can stand above or below the compound they belong to.

Legend:
CDK14/Cyclin Y = CDK14/Cyclin Y (Homo sapiens, UniProt O94921); assay: NanoBRET live-cell target engagement, CDK14-NanoLuc/Cyclin Y in HEK-293; format: binding
all 21 human CDKs = assay: Live-cell selectivity profile across all 21 CDK/cyclin complexes in HEK-293; format: binding; details: remaining CDK family, live HEK-293; read-out: Collateral CDK (potency)
CDK10/Cyclin L2 = CDK10/Cyclin L2 (Homo sapiens, UniProt Q15131); assay: NanoBRET live-cell target engagement, CDK10-NanoLuc/Cyclin L2 in HEK-293; details: for IC50: read-out: CDK10/L2 IC50
CDK6/Cyclin D1 = CDK6/Cyclin D1 (Homo sapiens, UniProt Q00534); assay: Target engagement analysis in MCF7 cells, NLuc-CDK6/Cyclin D1; format: binding; details: Panel C;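 also: MCF7 cells transiently co-transfected with an NLuc-CDK6 fusion plasmid plus a Cyclin D1 expression plasmid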
CDK4/Cyclin D1 = CDK4/Cyclin D1 (Homo sapiens, UniProt P11802); assay: Target engagement analysis in MCF7 cells, NLuc-CDK4/Cyclin D1; format: binding; details: Panel D;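 also: MCF7 cells transiently transfected to express NLuc-tagged CDK4 together with Cyclin D1, with the assay run in Opti-MEM medium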
phospho-Rb (Ser 807/811) = assay: Endogenous phospho-Rb (Ser 807/811) Lumit immunoassay in MCF7 cells; format: cell-based, human; details: for Normalized pRB (%): Panel E;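 as to all read-outs here: Serum-starved cells exposed to compounds for 24 h with 25 ng/mL hEGF, then lysed, phospho-Rb detected by split-luciferase antibody pair luminescence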
[1] = read-out: Inhibition at 10µM (%), CDK10/L2, average
[2] = read-out: Inhibition at 10µM (%), CDK10/L2, experiment 1
[3] = read-out: Inhibition at 10µM (%), CDK10/L2, experiment 2
[4] = 10µM, average of experiments, read-out: CDK14/Y Inhibition at 10µM (%)
[5] = 10µM, independent experiment 1, read-out: CDK14/Y Inhibition at 10µM (%)
[6] = 10µM, independent experiment 2, read-out: CDK14/Y Inhibition at 10µM (%)
[7] = read-out: CDK10/L2 Inhibition at 10µM (%), 10µM, average of experiments
[8] = read-out: CDK10/L2 Inhibition at 10µM (%), 10µM, independent experiment 1
[9] = read-out: CDK10/L2 Inhibition at 10µM (%), 10µM, independent experiment 2
[10] = LOG10([Compound]) (LOG10(µM)) 0.0457575
[11] = LOG10([Compound]) (LOG10(µM)) 0.522879
[12] = LOG10([Compound]) (LOG10(µM)) 1
[13] = LOG10([Compound]) (LOG10(µM)) -0.431364
[14] = LOG10([Compound]) (LOG10(µM)) -0.908485
[15] = LOG10([Compound]) (LOG10(µM)) -1.38561
[16] = LOG10([Compound]) (LOG10(µM)) -1.86273
[17] = LOG10([Compound]) (LOG10(µM)) -2.33985
[18] = LOG10([Compound]) (LOG10(µM)) -2.81697
[19] = LOG10([Compound]) (LOG10(µM)) -3.29409

CDK14/Cyclin Y, sequence (O94921 whole entry): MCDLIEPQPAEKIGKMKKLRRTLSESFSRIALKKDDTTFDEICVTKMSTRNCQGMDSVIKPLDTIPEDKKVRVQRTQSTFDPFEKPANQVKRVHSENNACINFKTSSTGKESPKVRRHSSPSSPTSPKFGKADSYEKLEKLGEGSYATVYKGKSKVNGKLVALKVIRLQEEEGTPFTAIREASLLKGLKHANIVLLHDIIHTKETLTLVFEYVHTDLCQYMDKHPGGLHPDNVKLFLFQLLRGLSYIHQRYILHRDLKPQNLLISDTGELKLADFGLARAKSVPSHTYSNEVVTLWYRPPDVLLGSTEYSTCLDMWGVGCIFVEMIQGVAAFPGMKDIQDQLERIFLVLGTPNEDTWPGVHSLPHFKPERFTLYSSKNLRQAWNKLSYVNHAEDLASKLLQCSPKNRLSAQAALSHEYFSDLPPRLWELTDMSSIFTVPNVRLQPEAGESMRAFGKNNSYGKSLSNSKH
CDK14/Cyclin Y, sequence (Q8ND76 whole entry partner): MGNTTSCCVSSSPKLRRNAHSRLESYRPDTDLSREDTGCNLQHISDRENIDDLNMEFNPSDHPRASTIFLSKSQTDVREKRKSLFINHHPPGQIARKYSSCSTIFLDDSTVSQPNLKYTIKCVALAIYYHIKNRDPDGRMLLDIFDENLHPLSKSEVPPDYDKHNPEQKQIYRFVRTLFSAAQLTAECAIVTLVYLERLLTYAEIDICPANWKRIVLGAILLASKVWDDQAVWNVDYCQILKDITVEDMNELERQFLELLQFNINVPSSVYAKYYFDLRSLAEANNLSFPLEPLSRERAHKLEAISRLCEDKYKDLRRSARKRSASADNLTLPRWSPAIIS
CDK6/Cyclin D1, sequence (Q00534 whole entry, the tested form may be a part): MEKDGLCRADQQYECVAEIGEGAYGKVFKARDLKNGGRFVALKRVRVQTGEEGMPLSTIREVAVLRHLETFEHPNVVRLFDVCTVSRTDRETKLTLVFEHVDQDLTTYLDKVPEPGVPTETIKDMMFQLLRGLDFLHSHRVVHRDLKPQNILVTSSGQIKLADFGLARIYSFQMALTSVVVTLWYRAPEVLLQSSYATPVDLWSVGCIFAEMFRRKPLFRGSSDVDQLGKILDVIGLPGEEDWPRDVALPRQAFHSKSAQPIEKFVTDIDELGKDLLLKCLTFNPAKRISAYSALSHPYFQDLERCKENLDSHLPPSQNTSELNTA
CDK6/Cyclin D1, sequence (P24385 whole entry partner, the tested form may be a part): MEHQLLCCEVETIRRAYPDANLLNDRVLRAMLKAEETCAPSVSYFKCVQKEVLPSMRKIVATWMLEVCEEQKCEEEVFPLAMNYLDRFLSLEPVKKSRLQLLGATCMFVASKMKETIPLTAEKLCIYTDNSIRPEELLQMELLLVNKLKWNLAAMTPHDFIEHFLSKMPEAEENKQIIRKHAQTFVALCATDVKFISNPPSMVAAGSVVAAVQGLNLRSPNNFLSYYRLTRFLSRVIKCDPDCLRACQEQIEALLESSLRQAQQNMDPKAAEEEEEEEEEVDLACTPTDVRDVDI
CDK10/Cyclin L2, sequence (Q15131 whole entry, the tested form may be a part): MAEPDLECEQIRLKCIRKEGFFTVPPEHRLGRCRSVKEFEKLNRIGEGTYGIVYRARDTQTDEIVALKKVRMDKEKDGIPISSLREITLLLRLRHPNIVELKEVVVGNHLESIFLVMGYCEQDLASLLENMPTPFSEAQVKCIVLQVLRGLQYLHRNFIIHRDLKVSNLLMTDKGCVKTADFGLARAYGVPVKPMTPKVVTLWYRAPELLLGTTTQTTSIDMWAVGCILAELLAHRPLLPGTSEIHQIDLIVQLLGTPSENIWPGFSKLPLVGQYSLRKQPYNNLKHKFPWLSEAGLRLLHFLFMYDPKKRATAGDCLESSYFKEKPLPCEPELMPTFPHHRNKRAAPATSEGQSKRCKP
CDK4/Cyclin D1, sequence (P11802 whole entry): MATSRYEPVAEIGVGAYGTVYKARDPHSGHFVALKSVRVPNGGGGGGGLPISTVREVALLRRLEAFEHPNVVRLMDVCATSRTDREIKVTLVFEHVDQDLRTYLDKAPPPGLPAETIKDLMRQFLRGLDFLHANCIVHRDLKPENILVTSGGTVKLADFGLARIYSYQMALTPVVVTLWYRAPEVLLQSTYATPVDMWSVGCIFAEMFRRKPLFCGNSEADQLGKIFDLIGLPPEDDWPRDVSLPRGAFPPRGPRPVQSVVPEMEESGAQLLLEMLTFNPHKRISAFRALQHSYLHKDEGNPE
CDK4/Cyclin D1, sequence (P24385 whole entry partner): as the sequence (P24385 whole entry partner, the tested form may be a part) above

SMILES: COC1CN(C(=O)c2ccc3c(N)ncc(-c4ccc(-c5cnn(C)c5)cc4)c3n2)C1 [CCT251545 analog]
inhibition at 10 µM (CDK14/Cyclin Y; read-out: Inhibition at 10µM (%), CDK14/Y, average): -6.1%
inhibition at 10 µM (CDK14/Cyclin Y; read-out: Inhibition at 10µM (%), CDK14/Y, experiment 1): -1.1%
inhibition at 10 µM (CDK14/Cyclin Y; read-out: Inhibition at 10µM (%), CDK14/Y, experiment 2): -11%
IC50 (all 21 human CDKs): > 1000 nM
inhibition at 10 µM (CDK10/Cyclin L2; [1]): -11.6%
inhibition at 10 µM (CDK10/Cyclin L2; [2]): -2.4%
inhibition at 10 µM (CDK10/Cyclin L2; [3]): -20.8%

SMILES: Cn1cc(-c2ccc(-c3cncc(Cl)c3N3CCC4(CCNC4=O)CC3)cc2)cn1 [CCT251545]
inhibition at 10 µM (CDK14/Cyclin Y; CDK14/Y, average, read-out: Inhibition at 10µM (%)): -6%
inhibition at 10 µM (CDK14/Cyclin Y; CDK14/Y, experiment 1, read-out: Inhibition at 10µM (%)): -5.6%
inhibition at 10 µM (CDK14/Cyclin Y; CDK14/Y, experiment 2, read-out: Inhibition at 10µM (%)): -6.4%
IC50 (all 21 human CDKs): > 1000 nM
inhibition at 10 µM (CDK10/Cyclin L2; [1]): 6.5%
inhibition at 10 µM (CDK10/Cyclin L2; [2]): -3.1%
inhibition at 10 µM (CDK10/Cyclin L2; [3]): 16.1%

SMILES: CN(C)C/C=C/C(=O)Nc1ccc(C(=O)Nc2cccc(Nc3ncc(Cl)c(-c4c[nH]c5ccccc45)n3)c2)cc1 [THZ1]
CDK14/Y Inhibition at 10µM (%) (CDK14/Cyclin Y; 10µM, average of experiments): 33.1%
CDK14/Y Inhibition at 10µM (%) (CDK14/Cyclin Y; 10µM, independent experiment 1): 6.6%
CDK14/Y Inhibition at 10µM (%) (CDK14/Cyclin Y; 10µM, independent experiment 2): 59.6%
CDK10/L2 Inhibition at 10µM (%) (CDK10/Cyclin L2; average of experiments): 48.0%
CDK10/L2 Inhibition at 10µM (%) (CDK10/Cyclin L2; independent experiment 1): 11.4%
CDK10/L2 Inhibition at 10µM (%) (CDK10/Cyclin L2; independent experiment 2): 84.6%
IC50 (CDK10/Cyclin L2; average (± SEM where n=3)): 1000 ± 300 nM
IC50 (CDK10/Cyclin L2; independent experiment 1): 660 nM
IC50 (CDK10/Cyclin L2; independent experiment 2): 790 nM
IC50 (CDK10/Cyclin L2; independent experiment 3): 1500 nM

SMILES: CN(C)C/C=C/C(=O)Nc1ccc(C(=O)N2CCC[C@@H](Nc3ncc(Cl)c(-c4c[nH]c5ccccc45)n3)C2)cc1 [THZ531]
inhibition at 10 µM (CDK14/Cyclin Y; [4]): 41.8%
inhibition at 10 µM (CDK14/Cyclin Y; [5]): 22.4%
inhibition at 10 µM (CDK14/Cyclin Y; [6]): 61.2%
IC50 (all 21 human CDKs): > 1000 nM
inhibition at 10 µM (CDK10/Cyclin L2; [7]): 51%
inhibition at 10 µM (CDK10/Cyclin L2; [8]): 41.2%
inhibition at 10 µM (CDK10/Cyclin L2; [9]): 60.7%

CDK6 Target Occupancy (CDK6/Cyclin D1; [14]): 100.715 and 100.045 and 100 and 101.028
inhibition at 10 µM (CDK14/Cyclin Y; [4]): 11.3%
inhibition at 10 µM (CDK14/Cyclin Y; [5]): 16.4%
inhibition at 10 µM (CDK14/Cyclin Y; [6]): 6.2%
CDK4 Target Occupancy (CDK4/Cyclin D1; [10]): 104 and 103.238 and 105.143
CDK4 Target Occupancy (CDK4/Cyclin D1; [11]): 109.905 and 105.81 and 108 and 106.476
CDK4 Target Occupancy (CDK4/Cyclin D1; [16]): 99.1429 and 96.1905 and 95.9048
CDK4 Target Occupancy (CDK4/Cyclin D1; [17]): 89.0476 and 92.4762 and 89.4286
CDK4 Target Occupancy (CDK4/Cyclin D1; LOG10([Compound]) (LOG10(µM)) -3.77121): 32.381 and 31.4286 and 33.3333
inhibition at 10 µM (CDK10/Cyclin L2; [7]): 11.6%
inhibition at 10 µM (CDK10/Cyclin L2; [8]): 13.3%
inhibition at 10 µM (CDK10/Cyclin L2; [9]): 9.9%
IC50 (phospho-Rb (Ser 807/811); Homo sapiens, MCF7 cells, Panel F pIC50 correlations): 20.9 nM
SMILES: CN1CCN(c2ccc(Nc3ncc4cc5n(c4n3)C3(CCCCC3)CNC5=O)nc2)CC1 [Trilaciclib]
CDK6 Target Occupancy (CDK6/Cyclin D1; [10]): 101.609 and 102.011 and 101.117 and 100.76
CDK6 Target Occupancy (CDK6/Cyclin D1; [11]): 102.28 and 102.861 and 100.67 and 102.905
CDK6 Target Occupancy (CDK6/Cyclin D1; [12]): 101.52 and 101.564 and 101.073 and 101.654
CDK6 Target Occupancy (CDK6/Cyclin D1; [13]): 101.654 and 100.223 and 101.833 and 101.341
CDK6 Target Occupancy (CDK6/Cyclin D1; [15]): 97.5863 and 94.6363 and 95.9772 and 97.2287
CDK6 Target Occupancy (CDK6/Cyclin D1; [16]): 90.9264 and 90.3453 and 90.1218 and 88.5574
CDK6 Target Occupancy (CDK6/Cyclin D1; [17]): 74.567 and 73.0473 and 71.5722 and 77.4723
CDK6 Target Occupancy (CDK6/Cyclin D1; [18]): 30.7185 and 35.6353 and 35.9482 and 37.7808
CDK4 Target Occupancy (CDK4/Cyclin D1; [12]): 104.19 and 102.19 and 103.238 and 105.143
CDK4 Target Occupancy (CDK4/Cyclin D1; [13]): 107.333 and 104.381 and 108.571 and 104.286
CDK4 Target Occupancy (CDK4/Cyclin D1; [14]): 102.286 and 102.857 and 103.333 and 103.048
CDK4 Target Occupancy (CDK4/Cyclin D1; [15]): 103.238 and 101.524 and 101.714 and 103.81
CDK4 Target Occupancy (CDK4/Cyclin D1; [18]): 77.4286 and 74.7619 and 73.7143 and 67.1429
CDK4 Target Occupancy (CDK4/Cyclin D1; [19]): 58.1905 and 60.6667 and 56.5714 and 57.0476
Normalized pRB (%) (phospho-Rb (Ser 807/811); [10]): 9.9% and 10.9% and 11.1%
Normalized pRB (%) (phospho-Rb (Ser 807/811); [11]): 8.7% and 9.3% and 9.4%
Normalized pRB (%) (phospho-Rb (Ser 807/811); [12]): 9.1% and 9.9% and 10.7%
Normalized pRB (%) (phospho-Rb (Ser 807/811); [13]): 11.9% and 12.2% and 12.8%
Normalized pRB (%) (phospho-Rb (Ser 807/811); [14]): 21.1% and 21.7% and 21.4%
Normalized pRB (%) (phospho-Rb (Ser 807/811); [15]): 39.5% and 43.3% and 40.8%
Normalized pRB (%) (phospho-Rb (Ser 807/811); [16]): 65.2% and 69.5% and 71.9%
Normalized pRB (%) (phospho-Rb (Ser 807/811); [17]): 95% and 98.6% and 94.8%
Normalized pRB (%) (phospho-Rb (Ser 807/811); [18]): 103% and 105.2% and 103.9%
Normalized pRB (%) (phospho-Rb (Ser 807/811); [19]): 100.3% and 111% and 109%
